Reference: US20030153030A1, “Enzyme-catalyzed modification of substances in biological mixtures” (priority 1999, published 2003)

Key:
MSCP5 cells = assay: Prostaglandin synthesis/release in 14C-arachidonic acid-marked skin keratinocytes; type: cell-based, Murine; conditions: NS398 10 μM, positive control, 2 hours incubation
Description: FIG. 1 is a schematic illustration of the effects of salicin and salicin esters on the release of prostaglandin in keratinocytes. The average value of three measuring points is shown. In FIG. 1, 1=negative control, 2=salicin, 3=phenyl propionyl salicin, 4=p-OH-phenyl acetyl salicin and 5=positive control.
Murine (MSCP5) and human (HPKII) skin keratinocytes were marked for 16 hours with 0.2 μCi ^14C-arachidonic acid/ml medium. Salicin, phenylpropionyl salicin and p-OH-phenylacetyl salicin in fresh medium were added in increasing concentrations as test substances and incubated for 2 hours. In the positive control NS398 (10 μM) for MSCP5 cells, prostaglandin synthesis is reduced by 85%. The prostaglandins were identified by comparison with reference substances and quantified by radiodensitometry. MSCP5: 100%=201 cpm; HPKII: 100%=63 cpm.

[1] = Activity of salicin derivative as opposed to salicin; conditions: modified versus unmodified salicin

Compound | prostaglandin synthesis is reduced by (MSCP5 cells) | improvement of activity as opposed to salicin [1]
CS(=O)(=O)Nc1ccc([N+](=O)[O-])cc1OC1CCCCC1 [NS398] | 85% | –
O=C(Cc1ccc(O)cc1)OCC1OC(Oc2ccccc2CO)C(O)C(O)C1O (centres unmarked) [p-OH-phenyl acetoyl salicin, p-OH-phenylacetyl salicin] | – | improvements are also shown
